# Data taken from article PMC8371461 (Frontiers in Pharmacology, 2021).
# Legend:
# [1] = biological target: T1, DRAK1 (Homo sapiens, UniProt Q9UEE5); experiment: kinome scan; format: binding; conditions: 10 µM
# T1 construct: purchased DiscoverX (KINOMEscan)
# [2] = biological target: T2, LRRK2(G2019S) (Homo sapiens, UniProt Q5S007, G2019S); experiment: kinome scan; format: binding; conditions: 10 µM
# T2 construct: purchased DiscoverX (KINOMEscan)
# [3] = biological target: T3, MST3 (Homo sapiens, UniProt Q9Y6E0); experiment: kinome scan; format: binding; conditions: 10 µM
# T3 construct: purchased DiscoverX (KINOMEscan)
# [4] = biological target: T4, CSNK1D (Homo sapiens, UniProt P48730); experiment: kinome scan; format: binding; conditions: 10 µM
# T4 construct: purchased DiscoverX (KINOMEscan)
# [5] = biological target: T5, CAMK1G (Homo sapiens, UniProt Q96NX5); experiment: kinome scan; format: binding; conditions: 10 µM
# T5 construct: purchased DiscoverX (KINOMEscan)
# [6] = biological target: T6, PYK2 (Homo sapiens, UniProt Q14289); experiment: kinome scan; format: binding; conditions: 10 µM
# T6 construct: purchased DiscoverX (KINOMEscan)
# [7] = biological target: T7, BRAF(V600E) (Homo sapiens, UniProt P15056, V600E); experiment: kinome scan; format: binding; conditions: 10 µM
# T7 construct: purchased DiscoverX (KINOMEscan)
# [8] = biological target: T8, FGFR3 (Homo sapiens, UniProt P22607); experiment: kinome scan; format: binding; conditions: 10 µM
# T8 construct: purchased DiscoverX (KINOMEscan)
# [9] = biological target: T9, ABL1(F317I)-nonphosphorylated (Homo sapiens, UniProt P00519, F317I); experiment: kinome scan; format: binding; conditions: 10 µM
# T9 construct: purchased DiscoverX (KINOMEscan)
# [10] = biological target: Abelson (Abl) (Homo sapiens, UniProt P00519); experiment: kinome scan; format: binding; set-up: T7 phage fusion (kinase-tagged phage); purchased DiscoverX (Ambit Biosciences); host or cells: BL21-derived E. coli (T7 phage); conditions: read-out: Kinome scan (% of control at 10 µM)
# Protocol: The kinome scan analysis was performed using the DiscoverX platform (www.discoverx.com). Briefly, T7 kinase-tagged phage strains are grown in parallel in 24-well or 96-well blocks in a BL21-derived E. coli host for 90 min until lysis. Lysates are centrifuged at 6,000 x g and filtered with a 0.2 µm filter to remove cell debris. Streptavidin-coated magnetic beads are treated with biotinylated kinase ligands for 30 min at room temperature to generate the affinity resin. Bound beads are blocked with excess biotin and washed with blocking buffer (SeaBlock (Pierce), 1% BSA, 0.05% Tween 20, and 1 mM DTT) to remove unbound ligand and reduce nonspecific phage binding. […] The final concentration of test compound is 10 µM. Assay plates are incubated at room temperature with shaking for 1 h. Affinity beads are treated four times with washing buffer (1X PBS, 0.05% Tween 20, and 1 mM DTT) to remove unbound phage. […] Q RT PCR is used to measure the amount of phage in each eluate (which is proportional to the amount of kinase bound). […]
# Hits are identified by an ultra-sensitive quantitative PCR detecting the specific DNA tag linked to each kinase (Supplementary Figure S2). The drug is used at a concentration of 10 µM and results are expressed as the percentage of signal (kinase PCR detection) with respect to DMSO control conditions. […]
# [11] = biological target: T10, PCTK2 (Homo sapiens, UniProt Q00537); experiment: kinome scan; format: binding; conditions: 10 µM
# T10 construct: purchased DiscoverX (KINOMEscan)
# [12] = biological target: T11, DLK (Homo sapiens, UniProt Q12852); experiment: kinome scan; format: binding; conditions: 10 µM
# T11 construct: purchased DiscoverX (KINOMEscan)
# [13] = biological target: T12, TAOK1 (Homo sapiens, UniProt Q7L7X3); experiment: kinome scan; format: binding; conditions: 10 µM
# T12 construct: purchased DiscoverX (KINOMEscan)
# [14] = biological target: T13, NEK4 (Homo sapiens, UniProt P51957); experiment: kinome scan; format: binding; conditions: 10 µM
# T13 construct: purchased DiscoverX (KINOMEscan)
# [15] = biological target: T14, BLK (Homo sapiens, UniProt P51451); experiment: kinome scan; format: binding; conditions: 10 µM
# T14 construct: purchased DiscoverX (KINOMEscan)
# [16] = biological target: T15, ASK1 (Homo sapiens, UniProt Q99683); experiment: kinome scan; format: binding; conditions: 10 µM
# T15 construct: purchased DiscoverX (KINOMEscan)
# [17] = biological target: T16, ERK2 (Homo sapiens, UniProt P28482); experiment: kinome scan; format: binding; conditions: 10 µM
# T16 construct: purchased DiscoverX (KINOMEscan)
# [18] = biological target: T17, JNK1 (Homo sapiens, UniProt P45983); experiment: kinome scan; format: binding; conditions: 10 µM
# T17 construct: purchased DiscoverX (KINOMEscan)
# [19] = biological target: T18, EGFR(G719S) (Homo sapiens, UniProt P00533, G719S); experiment: kinome scan; format: binding; conditions: 10 µM
# T18 construct: purchased DiscoverX (KINOMEscan)
# [20] = biological target: T19, FLT3(D835Y) (Homo sapiens, UniProt P36888, D835Y); experiment: kinome scan; format: binding; conditions: 10 µM
# T19 construct: purchased DiscoverX (KINOMEscan)
# [21] = biological target: T20, DYRK1A (Homo sapiens, UniProt Q13627); experiment: kinome scan; format: binding; conditions: 10 µM
# T20 construct: purchased DiscoverX (KINOMEscan)
# [22] = biological target: T21, HIPK4 (Homo sapiens, UniProt Q8NE63); experiment: kinome scan; format: binding; conditions: 10 µM
# T21 construct: purchased DiscoverX (KINOMEscan)
# [23] = tested on: AKT; experiment: AKT phosphorylation at the protein level in PSC; format: cell-based, mouse; conditions: 10 µM, 10 min, 1 and 3 h after exposure
# [24] = biological target: T22, MRCKB (Homo sapiens, UniProt Q9Y5S2); experiment: kinome scan; format: binding; conditions: 10 µM
# T22 construct: purchased DiscoverX (KINOMEscan)
# [25] = biological target: T23, PIK3CA(E542K) (Homo sapiens, UniProt P42336, E542K); experiment: kinome scan; format: binding; conditions: 10 µM
# T23 construct: purchased DiscoverX (KINOMEscan)
# [26] = biological target: T24, ERBB3 (Homo sapiens, UniProt P21860); experiment: kinome scan; format: binding; conditions: 10 µM
# T24 construct: purchased DiscoverX (KINOMEscan)
# [27] = biological target: T25, NEK5 (Homo sapiens, UniProt Q6P3R8); experiment: kinome scan; format: binding; conditions: 10 µM
# T25 construct: purchased DiscoverX (KINOMEscan)
# [28] = biological target: T26, AURKC (Homo sapiens, UniProt Q9UQB9); experiment: kinome scan; format: binding; conditions: 10 µM
# T26 construct: purchased DiscoverX (KINOMEscan)
# T7 sequence (P15056 whole entry V600E): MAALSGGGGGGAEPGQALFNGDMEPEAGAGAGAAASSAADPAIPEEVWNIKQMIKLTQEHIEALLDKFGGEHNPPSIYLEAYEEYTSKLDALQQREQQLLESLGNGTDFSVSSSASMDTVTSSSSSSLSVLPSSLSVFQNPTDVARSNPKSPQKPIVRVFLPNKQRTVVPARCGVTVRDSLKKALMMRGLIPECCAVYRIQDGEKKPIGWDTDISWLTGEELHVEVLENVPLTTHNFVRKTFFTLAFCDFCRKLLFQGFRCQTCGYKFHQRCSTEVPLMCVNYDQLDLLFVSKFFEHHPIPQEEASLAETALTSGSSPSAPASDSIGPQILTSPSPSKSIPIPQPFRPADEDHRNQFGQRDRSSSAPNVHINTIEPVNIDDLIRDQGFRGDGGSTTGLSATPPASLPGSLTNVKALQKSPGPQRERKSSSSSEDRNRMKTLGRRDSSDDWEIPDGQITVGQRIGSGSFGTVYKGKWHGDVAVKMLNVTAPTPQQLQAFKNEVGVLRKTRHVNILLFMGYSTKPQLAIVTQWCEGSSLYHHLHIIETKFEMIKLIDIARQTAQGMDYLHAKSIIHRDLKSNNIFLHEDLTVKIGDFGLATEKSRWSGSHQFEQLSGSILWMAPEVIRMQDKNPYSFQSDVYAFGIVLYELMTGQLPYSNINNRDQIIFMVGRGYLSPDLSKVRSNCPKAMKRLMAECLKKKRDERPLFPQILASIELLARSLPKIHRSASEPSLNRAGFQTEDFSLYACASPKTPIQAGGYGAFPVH
# T2 sequence (Q5S007 whole entry G2019S): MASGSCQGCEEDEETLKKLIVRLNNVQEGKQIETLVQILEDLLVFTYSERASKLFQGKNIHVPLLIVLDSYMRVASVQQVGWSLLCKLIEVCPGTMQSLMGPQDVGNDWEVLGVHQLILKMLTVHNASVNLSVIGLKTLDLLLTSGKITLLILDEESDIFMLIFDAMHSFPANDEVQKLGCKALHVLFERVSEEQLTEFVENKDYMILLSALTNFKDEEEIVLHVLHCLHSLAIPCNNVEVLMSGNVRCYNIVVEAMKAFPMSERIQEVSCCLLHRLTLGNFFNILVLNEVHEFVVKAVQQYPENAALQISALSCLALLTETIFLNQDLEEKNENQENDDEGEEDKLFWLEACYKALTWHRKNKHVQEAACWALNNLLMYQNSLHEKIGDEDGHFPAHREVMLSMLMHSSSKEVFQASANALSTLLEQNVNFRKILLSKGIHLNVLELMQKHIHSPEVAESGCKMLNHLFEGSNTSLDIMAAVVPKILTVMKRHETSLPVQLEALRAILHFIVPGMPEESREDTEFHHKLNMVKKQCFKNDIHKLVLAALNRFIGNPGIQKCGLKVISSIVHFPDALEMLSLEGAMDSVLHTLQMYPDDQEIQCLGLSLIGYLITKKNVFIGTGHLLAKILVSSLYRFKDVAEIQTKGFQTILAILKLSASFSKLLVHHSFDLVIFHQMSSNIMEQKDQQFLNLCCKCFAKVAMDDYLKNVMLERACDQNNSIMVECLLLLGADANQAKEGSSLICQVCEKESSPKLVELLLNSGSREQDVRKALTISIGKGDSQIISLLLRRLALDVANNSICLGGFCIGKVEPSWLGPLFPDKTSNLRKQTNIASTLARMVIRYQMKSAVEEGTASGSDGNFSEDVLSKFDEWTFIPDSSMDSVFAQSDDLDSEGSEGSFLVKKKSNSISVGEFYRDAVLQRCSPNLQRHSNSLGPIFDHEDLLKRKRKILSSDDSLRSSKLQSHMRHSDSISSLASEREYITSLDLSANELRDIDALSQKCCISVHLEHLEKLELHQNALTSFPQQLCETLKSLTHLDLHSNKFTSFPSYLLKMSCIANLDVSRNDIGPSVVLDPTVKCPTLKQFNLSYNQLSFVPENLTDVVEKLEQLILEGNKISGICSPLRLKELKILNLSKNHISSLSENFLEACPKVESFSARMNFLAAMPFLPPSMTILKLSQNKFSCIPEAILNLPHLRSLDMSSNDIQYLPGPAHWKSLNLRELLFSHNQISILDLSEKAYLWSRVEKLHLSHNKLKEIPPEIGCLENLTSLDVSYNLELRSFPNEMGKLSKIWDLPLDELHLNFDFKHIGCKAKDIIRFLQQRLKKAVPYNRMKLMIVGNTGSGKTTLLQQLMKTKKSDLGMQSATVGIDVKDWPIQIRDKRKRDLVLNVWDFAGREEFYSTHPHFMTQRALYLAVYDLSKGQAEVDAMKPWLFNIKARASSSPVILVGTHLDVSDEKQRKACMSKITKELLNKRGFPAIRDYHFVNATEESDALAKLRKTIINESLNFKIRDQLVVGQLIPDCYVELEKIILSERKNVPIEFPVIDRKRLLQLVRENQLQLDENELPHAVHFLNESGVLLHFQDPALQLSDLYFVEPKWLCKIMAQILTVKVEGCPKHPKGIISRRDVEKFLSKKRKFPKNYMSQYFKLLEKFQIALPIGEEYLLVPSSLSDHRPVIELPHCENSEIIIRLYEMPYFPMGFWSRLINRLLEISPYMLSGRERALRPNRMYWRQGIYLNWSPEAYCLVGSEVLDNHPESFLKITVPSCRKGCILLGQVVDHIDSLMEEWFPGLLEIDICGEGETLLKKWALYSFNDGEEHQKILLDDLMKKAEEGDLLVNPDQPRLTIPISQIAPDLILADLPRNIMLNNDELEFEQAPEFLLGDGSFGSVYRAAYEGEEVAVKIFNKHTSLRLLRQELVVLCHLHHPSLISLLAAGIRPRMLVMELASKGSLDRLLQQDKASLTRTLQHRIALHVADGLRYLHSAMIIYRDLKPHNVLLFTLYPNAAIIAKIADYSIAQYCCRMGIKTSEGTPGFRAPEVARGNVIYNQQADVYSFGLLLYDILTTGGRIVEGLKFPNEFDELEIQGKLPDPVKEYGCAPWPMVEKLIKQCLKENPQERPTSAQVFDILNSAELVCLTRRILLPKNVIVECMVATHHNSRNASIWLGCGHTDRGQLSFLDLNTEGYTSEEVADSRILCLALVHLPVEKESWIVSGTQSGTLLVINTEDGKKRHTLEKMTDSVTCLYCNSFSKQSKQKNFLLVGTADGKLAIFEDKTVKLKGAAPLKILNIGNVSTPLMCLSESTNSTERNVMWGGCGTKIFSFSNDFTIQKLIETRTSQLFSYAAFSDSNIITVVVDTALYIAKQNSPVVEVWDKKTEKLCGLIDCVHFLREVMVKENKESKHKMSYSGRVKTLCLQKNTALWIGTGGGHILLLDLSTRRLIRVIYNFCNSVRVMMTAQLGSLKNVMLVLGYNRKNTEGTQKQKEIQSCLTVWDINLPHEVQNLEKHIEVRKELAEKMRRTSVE
# Chain of Abelson (Abl) (P00519 whole entry, the tested form may be a part): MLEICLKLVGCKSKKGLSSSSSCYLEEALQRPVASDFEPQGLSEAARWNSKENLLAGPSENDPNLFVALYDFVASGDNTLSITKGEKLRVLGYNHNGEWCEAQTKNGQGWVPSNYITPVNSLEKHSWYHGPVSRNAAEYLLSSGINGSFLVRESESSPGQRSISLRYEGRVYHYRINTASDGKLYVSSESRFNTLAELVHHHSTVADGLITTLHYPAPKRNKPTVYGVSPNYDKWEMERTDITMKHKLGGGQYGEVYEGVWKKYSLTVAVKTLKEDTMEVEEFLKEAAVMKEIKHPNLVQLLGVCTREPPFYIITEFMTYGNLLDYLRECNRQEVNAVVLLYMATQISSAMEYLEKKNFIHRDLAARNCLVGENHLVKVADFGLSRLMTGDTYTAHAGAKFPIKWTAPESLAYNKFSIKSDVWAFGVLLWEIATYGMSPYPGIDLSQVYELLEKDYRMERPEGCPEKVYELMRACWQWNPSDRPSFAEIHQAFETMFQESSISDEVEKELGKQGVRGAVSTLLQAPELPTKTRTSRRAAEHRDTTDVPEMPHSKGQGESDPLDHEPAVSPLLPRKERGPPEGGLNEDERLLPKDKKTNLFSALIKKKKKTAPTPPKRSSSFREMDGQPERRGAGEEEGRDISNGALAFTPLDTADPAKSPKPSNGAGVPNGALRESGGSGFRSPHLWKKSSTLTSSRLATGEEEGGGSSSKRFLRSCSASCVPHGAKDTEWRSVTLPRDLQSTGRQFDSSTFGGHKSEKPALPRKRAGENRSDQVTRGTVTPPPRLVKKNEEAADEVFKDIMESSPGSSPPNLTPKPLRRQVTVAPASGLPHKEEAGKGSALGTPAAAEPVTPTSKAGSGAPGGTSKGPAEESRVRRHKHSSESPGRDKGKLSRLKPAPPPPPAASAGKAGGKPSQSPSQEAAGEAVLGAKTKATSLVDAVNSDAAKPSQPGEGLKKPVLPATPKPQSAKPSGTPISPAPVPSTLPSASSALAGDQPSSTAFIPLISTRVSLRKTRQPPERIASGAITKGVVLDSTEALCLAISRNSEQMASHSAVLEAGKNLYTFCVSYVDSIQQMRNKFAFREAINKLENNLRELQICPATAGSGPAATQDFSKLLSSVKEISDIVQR
# T21 sequence (Q8NE63 whole entry): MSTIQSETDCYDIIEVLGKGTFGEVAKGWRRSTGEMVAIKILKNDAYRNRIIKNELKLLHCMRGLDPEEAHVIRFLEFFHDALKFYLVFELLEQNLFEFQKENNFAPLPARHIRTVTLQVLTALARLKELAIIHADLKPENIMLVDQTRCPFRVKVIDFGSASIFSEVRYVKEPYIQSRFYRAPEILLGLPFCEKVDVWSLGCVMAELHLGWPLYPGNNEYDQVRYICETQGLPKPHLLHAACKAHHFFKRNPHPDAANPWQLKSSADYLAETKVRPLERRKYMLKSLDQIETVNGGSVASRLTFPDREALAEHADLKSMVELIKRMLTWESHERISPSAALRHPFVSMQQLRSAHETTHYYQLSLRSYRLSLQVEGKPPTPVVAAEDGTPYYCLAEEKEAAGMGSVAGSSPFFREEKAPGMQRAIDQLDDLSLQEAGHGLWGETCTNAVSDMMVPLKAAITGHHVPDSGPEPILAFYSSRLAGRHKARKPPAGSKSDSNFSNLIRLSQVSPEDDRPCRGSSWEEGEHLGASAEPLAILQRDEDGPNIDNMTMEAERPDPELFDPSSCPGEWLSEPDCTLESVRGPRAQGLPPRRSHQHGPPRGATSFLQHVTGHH
# T9 sequence (P00519 whole entry F317I): as the sequence (P00519 whole entry, the tested form may be a part) above, with F317I counted along it
smiles,measurement,setting,value
"Nc1ccc(N=Nc2ccccc2)c(N)n1 [phenazopyridine, 2,6-diamino-3-(phenylazo)pyridine]",kinase inhibition,[1],45
same,kinase inhibition,[2],91
same,kinase inhibition,[3],98
same,kinase inhibition,[4],50
same,kinase inhibition,[5],88
same,kinase inhibition,[6],100
same,kinase inhibition,[7],92
same,kinase inhibition,[8],91
same,kinase inhibition,[9],96
same,remaining binding at 10 µM,[10],48%
same,kinase inhibition,[11],98
same,kinase inhibition,[12],73
same,kinase inhibition,[13],93
same,kinase inhibition,[14],100
same,remaining binding (% of control),[15],100
same,kinase inhibition,[16],100
same,kinase inhibition,[17],92
same,kinase inhibition,[18],78
same,kinase inhibition,[19],92
same,percent of control (remaining binding),[20],42
same,remaining binding (% of control),[21],73
same,kinase inhibition,[22],72
same,phosphorylation of AKT,[23],reduced phosphorylation of AKT
same,kinase inhibition,[24],100
same,kinase inhibition,[25],98
same,kinase inhibition,[26],91
same,kinase inhibition,[27],100
same,kinase inhibition,[28],68
